From US12281081B2, “Herbicidal compounds” (SYNGENTA CROP PROTECTION AG, priority 2019, dated 2025)

Key:
[1] = test system: Alopecurus myosuroides (ALOMY); experiment: Pre-emergence herbicidal glasshouse test; assay type: in vivo; conditions: 250 g/Ha, evaluated after 13 days
Text: (§1) Compounds are applied at 250 g/h. […] NT=not tested.

Avena fatua (AVEFA) [2] = experiment: Pre-emergence herbicidal glasshouse test; assay type: in vivo; conditions: 250 g/Ha, evaluated after 13 days
Text: as §1

[3] = test system: Echinochloa crus-galli (ECHCG); experiment: Pre-emergence herbicidal glasshouse test; assay type: in vivo; conditions: 250 g/Ha, evaluated after 13 days
Text: as §1

Lolium perenne (LOLPE) [4] = experiment: Pre-emergence herbicidal glasshouse test; assay type: in vivo; conditions: 250 g/Ha, evaluated after 13 days
Text: as §1

Setaria faberi (SETFA) [5] = experiment: Pre-emergence herbicidal glasshouse test; assay type: in vivo; conditions: 250 g/Ha, evaluated after 13 days
Text: as §1

[6] = test system: Alopecurus myosuroides (ALOMY); experiment: Post-emergence herbicidal glasshouse test; assay type: in vivo; conditions: 250 g/Ha, evaluated after 13 days
Text: as §1

Avena fatua (AVEFA) [7] = experiment: Post-emergence herbicidal glasshouse test; assay type: in vivo; conditions: 250 g/Ha, evaluated after 13 days
Text: as §1

[8] = test system: Echinochloa crus-galli (ECHCG); experiment: Post-emergence herbicidal glasshouse test; assay type: in vivo; conditions: 250 g/Ha, evaluated after 13 days
Text: as §1

Lolium perenne (LOLPE) [9] = experiment: Post-emergence herbicidal glasshouse test; assay type: in vivo; conditions: 250 g/Ha, evaluated after 13 days
Text: as §1

Setaria faberi (SETFA) [10] = experiment: Post-emergence herbicidal glasshouse test; assay type: in vivo; conditions: 250 g/Ha, evaluated after 13 days
Text: as §1

wheat crop plants = experiment: Crop phytotoxicity comparison, post-emergence; conditions: for damage to the wheat crop compared to prior art compound C1: summary of Table B3
barley crop plants = experiment: Crop phytotoxicity comparison, post-emergence; conditions: for damage to the barley crop compared to prior art compound C1: summary of Table B3
[11] = rate 60 g/ha + safener cloquintocet-mexyl (CQC) at 50 g/ha

SMILES | percentage damage caused to the plant, ALOMY [1] | percentage damage caused to the plant, AVEFA (Avena fatua (AVEFA) [2]) | percentage damage caused to the plant, ECHCG [3] | percentage damage caused to the plant, LOLPE (Lolium perenne (LOLPE) [4]) | percentage damage caused to the plant, SETFA (Setaria faberi (SETFA) [5]) | percentage damage caused to the plant, ALOMY [6] | percentage damage caused to the plant, AVEFA (Avena fatua (AVEFA) [7]) | percentage damage caused to the plant, ECHCG [8] | percentage damage caused to the plant, LOLPE (Lolium perenne (LOLPE) [9]) | percentage damage caused to the plant, SETFA (Setaria faberi (SETFA) [10]) | % phytotoxicity observed, Wheat (wheat crop plants; rate 30 g/ha) [%] | % phytotoxicity observed, Wheat (wheat crop plants; rate 60 g/ha) [%] | % phytotoxicity observed, Wheat (wheat crop plants; [11]) [%] | damage to the wheat crop compared to prior art compound C1 (wheat crop plants) | % phytotoxicity observed, Barley (barley crop plants; rate 30 g/ha) [%] | % phytotoxicity observed, Barley (barley crop plants; rate 60 g/ha) [%] | damage to the barley crop compared to prior art compound C1 (barley crop plants)
CC#Cc1cc(C)c(C2C(=O)CC3(CCN(S(C)(=N)=O)CC3)CC2=O)c(C)c1 (stereo not drawn) [Compound A1, 9-(2,6-dimethyl-4-prop-1-ynyl-phenyl)-3-(methylsulfonimidoyl)-3-azaspiro[5.5]undecane-8,10-dione] | 5 (5=80-100%) | 5 (5=80-100%) | 5 (5=80-100%) | 5 (5=80-100%) | 5 (5=80-100%) | 5 (5=80-100%) | 5 (5=80-100%) | 5 (5=80-100%) | 5 (5=80-100%) | 5 (5=80-100%) | 0 | 0 | 0 | significantly less damaging | 0 | 0 | significantly less damaging
CC#Cc1cc(C)c(C2C(=O)CC3(CCN(S(=O)(=O)NC)CC3)CC2=O)c(C)c1 [Compound A3, 9-(2,6-dimethyl-4-prop-1-ynyl-phenyl)-N-methyl-8,10-dioxo-3-azaspiro[5.5]undecane-3-sulfonamide] | 5 (5=80-100%) | 5 (5=80-100%) | 5 (5=80-100%) | 5 (5=80-100%) | 5 (5=80-100%) | 5 (5=80-100%) | 5 (5=80-100%) | 5 (5=80-100%) | 5 (5=80-100%) | 5 (5=80-100%) | 0 | 0 | 0 | significantly less damaging | 0 | 0 | significantly less damaging
CC#Cc1cc(C)c(C2C(=O)CC3(CCOCC3)CC2=O)c(C)c1 [Compound C1, reference compound] | – | – | – | – | – | – | – | – | – | – | 40 | 70 | 60 | – | 80 | 90 | –
